Results on one molecule are retold here after paper PMC11271513, “Pseudoirreversible inhibition elicits persistent efficacy of a sphingosine 1-phosphate receptor 1 antagonist” (Nature Communications, 2024).

Assay [1] deals with T1, Sphingosine 1-phosphate receptor 1 (S1PR1) (Homo sapiens, UniProt P21453, M124V).
T1 construct: HiBiT-tagged human S1PR1 Val124 mutant in HEK293 cells
The experiment in a line: functional reversibility assays (internalization, cAMP). In kind it is cell-based.

Assay [2] concerns the target T2, Sphingosine 1-phosphate receptor 1 (S1PR1) (Homo sapiens, UniProt P21453).
T2 construct: human S1PR1 in HEK293 cell membranes
The experiment in a line: GTP binding assay; also functional reversibility and washout dissociation half-life […] h. In kind it is biochemical.

T1 sequence (P21453 whole entry M124V): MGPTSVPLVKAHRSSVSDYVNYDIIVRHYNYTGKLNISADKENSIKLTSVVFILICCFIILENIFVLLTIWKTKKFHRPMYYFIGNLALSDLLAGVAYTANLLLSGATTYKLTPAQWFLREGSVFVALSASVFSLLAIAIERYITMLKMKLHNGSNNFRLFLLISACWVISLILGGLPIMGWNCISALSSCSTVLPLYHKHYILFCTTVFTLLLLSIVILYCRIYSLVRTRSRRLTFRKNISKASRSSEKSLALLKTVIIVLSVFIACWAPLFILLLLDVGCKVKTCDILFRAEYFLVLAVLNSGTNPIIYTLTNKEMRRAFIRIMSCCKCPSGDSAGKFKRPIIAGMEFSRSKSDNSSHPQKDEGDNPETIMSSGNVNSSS
T2 sequence (P21453 whole entry): as the sequence (P21453 whole entry M124V) above, with V124M counted along it

The IC50 is the concentration at which inhibition is half-maximal. A low value points to greater potency in that assay. Take `CCN(c1ccc(Cl)c(C(F)(F)F)c1)C(C)c1ccc(C)c(CN2CC(C(=O)O)C2)c1` (racemic) [KSI-6666]: the “functional reversibility assays (internalization, cAMP)” value in assay [1] was “in the Val124 mutant, pre-bound KSI-6666 was almost completely replaced by the added agonist”. In assay [2], the IC50 is 6.4 nM.
